The source of these data is patent US11850273B2, “Chemical reprogramming of human glial cells into neurons for brain and spinal cord repair” (The Penn State Research Foundation, priority 2014, dated 2023).

For this experiment, the system named is human astrocyte-converted neurons. Kind of experiment: Patch clamp whole-cell recordings of human astrocyte-converted neurons. On the technique in general: The patch-clamp technique gives a direct electrical read-out from membranes.

Regarding DNQX, the “effect on spontaneous burst activities” value was “abolished”.
